From article PMC11945486, “TAS1R2/TAS1R3 Single-Nucleotide Polymorphisms Affect Sweet Taste Receptor Activation by Sweeteners: The SWEET Project” (Nutrients, 2025)

Biological target: T1, human TAS1R2-A574T (subunit alone) (Homo sapiens, UniProt Q8TE23, A574T)
T1 construct: expressed in transfected cells; host or cells: HEK293T-Gα16gust44
T1 sequence (Q8TE23 20-839 A574T): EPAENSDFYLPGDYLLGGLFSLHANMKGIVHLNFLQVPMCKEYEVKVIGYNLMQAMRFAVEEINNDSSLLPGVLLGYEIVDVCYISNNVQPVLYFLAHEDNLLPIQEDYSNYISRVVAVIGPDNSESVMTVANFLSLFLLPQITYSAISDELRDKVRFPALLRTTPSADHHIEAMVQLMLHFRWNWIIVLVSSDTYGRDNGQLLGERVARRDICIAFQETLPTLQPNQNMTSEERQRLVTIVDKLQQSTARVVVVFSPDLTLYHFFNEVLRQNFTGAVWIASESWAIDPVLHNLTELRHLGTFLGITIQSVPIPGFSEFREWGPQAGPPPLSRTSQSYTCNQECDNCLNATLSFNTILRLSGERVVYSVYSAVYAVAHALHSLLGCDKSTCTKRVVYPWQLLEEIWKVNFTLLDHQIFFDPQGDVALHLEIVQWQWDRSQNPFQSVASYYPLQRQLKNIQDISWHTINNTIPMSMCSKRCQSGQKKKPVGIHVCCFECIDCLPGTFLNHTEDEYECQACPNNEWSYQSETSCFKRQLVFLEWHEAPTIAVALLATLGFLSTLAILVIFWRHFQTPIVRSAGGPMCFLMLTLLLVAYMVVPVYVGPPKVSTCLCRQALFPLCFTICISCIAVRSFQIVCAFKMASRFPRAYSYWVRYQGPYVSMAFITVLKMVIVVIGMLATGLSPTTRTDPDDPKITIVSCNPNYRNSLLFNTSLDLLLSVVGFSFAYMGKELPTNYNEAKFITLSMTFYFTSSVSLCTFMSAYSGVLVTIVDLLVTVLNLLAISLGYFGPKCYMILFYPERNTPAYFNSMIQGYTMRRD
Experiment: Calcium mobilisation assay, TAS1R2-A574T subunit alone
Assay type: cell-based
Description: The coding sequences for TAS1R2 and TAS1R3 were commercially synthesised, and the human codon was optimised for expression in human cells. The coding sequences of human TAS1R2 and TAS1R3 were subcloned and inserted into the mammalian expression vectors pcDNA6/myc-HisA and pcDNA4/myc-HisA (Invitrogen; Thermo Fisher Scientific; Illkirch, France) between the EcoRI and NotI restriction sites, generating the plasmids pcDNA6-TAS1R2 and pcDNA4-TAS1R3, respectively. To increase protein expression in mammalian cells, an upstream start codon was used, which was a sequence called MAX, corresponding to the QBI SP163 element also described in pcDNA4-HisMax (Invitrogen; Thermo Fisher Scientific; Illkirch, France). To measure the expression level of the receptor by immunohistochemistry, we used the FLAG sequence ([…]) in the C-terminal position, which encodes the FLAG tag epitope. […]
The HEK293T cells were kindly provided by Jay P. Slack (Givaudan Flavors Corporation; Cincinnati, OH, USA). […] The fluorescence intensity was measured for 90 s (excitation 488 nm, emission 510 nm) in an automated fluorometric FlexStation®3 Multi-Mode microplate reader (Molecular Devices; San Jose, CA, USA). […] The Ca^2+ changes were expressed as fractional changes in fluorescent light intensity: ΔF/F = (F − F0)/F0, where F was the fluorescent light intensity at each point, and F0 was the value of emitted fluorescent light prior to stimulus application. To calculate dose–response relationships, the changes in fluorescence upon stimulus application were averaged, mock-subtracted and baseline-corrected. […] The half-maximal effective concentrations (EC50 values) and maximal signal amplitudes were calculated using SigmaPlot software (version 15.0) (Systat Software; San Jose, CA, USA).
For in vitro calcium mobilisation assay performed on hTAS1R2-SNPs, hTAS1R3-SNPs and mTAS1R3-I60T, 6 to 7 concentrations were tested for each sweet compound, plus buffer alone. All concentration–receptor combinations were measured in duplicate, and each experiment was repeated at least 4 times (8 wells/concentration). […]

C=C(C)[C@@H]1CC=C(/C=N/O)CC1 [Perillartine, perillartine]
EC50: 85.3 ± 12.4 µM
R1 = Variant EC50/WT EC50: 0.9
Max ΔF/F0 (maximal signal amplitude): 0.25 ± 0.01
